In patent US5159061A, “Atrial natriuretic peptide derivative” (Takeda Chemical Industries, Ltd., priority 1986, dated 1992):
Read-outs that look alike come from different tables or passages of the source. Where a SMILES comes first, the peptide text is derived from it. Bridges are numbered along the chain shown (N, C = ends). [ ]: non-standard residue; d: D form. Aib = CC(C)(N)C(=O)O

What was measured:
[1] = the molecule shown is the open-chain precursor, disulfide bond, 2 steps
[2] = test system: spontaneously hypertensive rats (SHR); experiment: Hypotensive action in spontaneously hypertensive rats (SHR); type: in vivo, rat; conditions: male SHR, 20 weeks old; intravenous 100 μg/250 μl/kg in physiological saline; maximum decrease in blood pressure, difference from preadministration value
Procedure: Hypotensive action in spontaneously hypertensive rats (SHR)
Three male SHRs at the age of 20 weeks in each group were anesthetized with pentobarbital (50 mg/kg, intraperitoneal administration); SP-10 and SP-45 polyethylene tubes (manufactured by Natsume Seisakusho, Japan) were inserted respectively into the groin artery and vein, and through each of these a cannula was passed to the neck site via the back subcutaneous tissue, and one end of the cannula was fixed there. The rats were used in experiments the following day. As a α-hANP derivatives, [Aib^6 ]-α-hANP[6-28] obtained in Example 1 and [Aib^6,Ile^12 ]-α-hANP[6-28] obtained in Example 8, and as a control, α-hANP[7-28], in solution in physiological saline, were each intravenously administered in the ratio of 100 μg/250 μl/kg of body weight. Hypotensive activities are shown as a degree of the maximum decrease in blood pressure (difference from the preadministration value) that occurred after the administration of the subject compound.

[3] = 53-membered ring, air (after HF deprotection)
[4] = 53-membered ring, air/NH4OAc/NH3 pH 6.9, water, 0.052 mM, 25.0 °C

H-Aib-Cys-Phe-Gly-Gly-Arg-Nle-Asp-Arg-Ile-Gly-Ala-Gln-Ser-Gly-Leu-Gly-Cys-Asn-Ser-Phe-Arg-Tyr-OH
ring closure, isolated yield [1, 3]: 14.4%

H-Ala-Cys-Phe-Gly-Gly-Arg-Met-Asp-Arg-Ile-Gly-Ala-Gln-Ser-Gly-Leu-Gly-Cys-Asn-Ser-Phe-Arg-Tyr-OH
ring closure, isolated yield [1, 3]: 14%

H-Achc-Cys-Phe-Gly-Gly-Arg-Met-Asp-Arg-Ile-Gly-Ala-Gln-Ser-Gly-Leu-Gly-Cys-Asn-Ser-Phe-Arg-Tyr-OH
ring closure, isolated yield [1, 4]: 22%

H-Cys-Phe-βAla-Arg-Met-Asp-Arg-Ile-Gly-Ala-Gln-Ser-Gly-Leu-Gly-Cys-Asn-Ser-Phe-Arg-Tyr-OH
ring closure, isolated yield ([1]; 51-membered ring, air/NH4OAc/NH3 pH 6.9, water, 0.056 mM, 25.0 °C): 17%

H-Cys-Phe-Gly-Gly-Arg-DL-Chg-Asp-Arg-Ile-Gly-Ala-Gln-Ser-Gly-Leu-Gly-Cys-Asn-Ser-Phe-Arg-Tyr-OH
ring closure, isolated yield [1, 3]: 38%

H-Cys-Phe-Gaba-Arg-Met-Asp-Arg-Ile-Gly-Ala-Gln-Ser-Gly-Leu-Gly-Cys-Asn-Ser-Phe-Arg-Tyr-OH
ring closure, isolated yield ([1]; 52-membered ring): 20%

H-Aib-Cys-Phe-Gly-Gly-Arg-Leu-Asp-Arg-Ile-Gly-Ala-Gln-Ser-Gly-Leu-Gly-Cys-Asn-Ser-Phe-Arg-Tyr-OH
ring closure, isolated yield [1, 3]: 22%

H-Val-Cys-Phe-Gly-Gly-Arg-Met-Asp-Arg-Ile-Gly-Ala-Gln-Ser-Gly-Leu-Gly-Cys-Asn-Ser-Phe-Arg-Tyr-OH
ring closure, isolated yield [1, 3]: 16%

H-Cys-Phe-Gly-Arg-Met-Asp-Arg-Ile-Gly-Ala-Gln-Ser-Gly-Leu-Gly-Cys-Asn-Ser-Phe-Arg-Tyr-OH
ring closure, isolated yield ([1]; 50-membered ring, air/NH4OAc/NH3 pH 6.9, water, 0.056 mM, 25.0 °C): 18%

CC[C@H](C)[C@@H]1NC(=O)[C@H](CCCNC(=N)N)NC(=O)[C@H](CC(=O)O)NC(=O)[C@H](CCSC)NC(=O)[C@H](CCCNC(=N)N)NC(=O)CNC(=O)CNC(=O)[C@H](Cc2ccccc2)NC(=O)[C@@H](NC(=O)C(C)(C)N)CSSC[C@@H](C(=O)N[C@@H](CC(N)=O)C(=O)N[C@@H](CO)C(=O)N[C@@H](Cc2ccccc2)C(=O)N[C@@H](CCCNC(=N)N)C(=O)N[C@@H](Cc2ccc(O)cc2)C(=O)O)NC(=O)CNC(=O)[C@H](CC(C)C)NC(=O)CNC(=O)[C@H](CO)NC(=O)[C@H](CCC(N)=O)NC(=O)[C@H](C)NC(=O)CNC1=O [[Aib^6]-α-hANP[6-28]] (H-[Aib]CFGGRMDRIGAQSGLGCNSFRY-OH; disulfide 2-18)
Degree of Decrease in Blood Pressure [2]: -70 ΔmmHg

H-Cys-Phe-dAla-Gly-Arg-Met-Asp-Arg-Ile-Gly-Ala-Gln-Ser-Gly-Leu-Gly-Cys-Asn-Ser-Phe-Arg-Tyr-OH
ring closure, isolated yield ([1]; 53-membered ring, air/NH4OAc/NH3 pH 6.9, water, 0.053 mM, 25.0 °C): 16%

H-Cys-Phe-Gly-Gly-Arg-Met-Asp-Arg-Ile-Gly-Ala-Gln-Ser-Gly-Leu-Gly-Cys-Asn-Ser-Phe-dArg-Tyr-OH
ring closure, isolated yield [1, 3]: 25%

H-Ile-Cys-Phe-Gly-Gly-Arg-Met-Asp-Arg-Ile-Gly-Ala-Gln-Ser-Gly-Leu-Gly-Cys-Asn-Ser-Phe-Arg-Tyr-OH
ring closure, isolated yield [1, 3]: 11%

H-dAla-Cys-Phe-Gly-Gly-Arg-Met-Asp-Arg-Ile-Gly-Ala-Gln-Ser-Gly-Leu-Gly-Cys-Asn-Ser-Phe-Arg-Tyr-OH
ring closure, isolated yield [1, 3]: 17%

CC[C@H](C)[C@@H]1NC(=O)[C@H](CCCNC(=N)N)NC(=O)[C@H](CC(=O)O)NC(=O)[C@H]([C@@H](C)CC)NC(=O)[C@H](CCCNC(=N)N)NC(=O)CNC(=O)CNC(=O)[C@H](Cc2ccccc2)NC(=O)[C@@H](NC(=O)C(C)(C)N)CSSC[C@@H](C(=O)N[C@@H](CC(N)=O)C(=O)N[C@@H](CO)C(=O)N[C@@H](Cc2ccccc2)C(=O)N[C@@H](CCCNC(=N)N)C(=O)N[C@@H](Cc2ccc(O)cc2)C(=O)O)NC(=O)CNC(=O)[C@H](CC(C)C)NC(=O)CNC(=O)[C@H](CO)NC(=O)[C@H](CCC(N)=O)NC(=O)[C@H](C)NC(=O)CNC1=O [[Aib^6, Ile^12]-α-hANP[6-28]] (H-[Aib]CFGGRIDRIGAQSGLGCNSFRY-OH; disulfide 2-18)
Degree of Decrease in Blood Pressure [2]: -90 ΔmmHg

H-Aib-Cys-Phe-Gly-Gly-Arg-Met-Asp-Arg-Ile-Gly-Ala-Gln-Ser-Gly-Leu-Gly-Cys-Asn-Ser-Phe-Arg-Tyr-OH
ring closure, isolated yield [1, 4]: 12%

H-Cys-Phe-Ava-Arg-Met-Asp-Arg-Ile-Gly-Ala-Gln-Ser-Gly-Leu-Gly-Cys-Asn-Ser-Phe-Arg-Tyr-OH
ring closure, isolated yield ([1]; 53-membered ring, air/NH4OAc/NH3 pH 6.9, water, 0.055 mM, 25.0 °C): 30%
